According to patent publication US20100266503A1, “Breast Cancer Methods, Medicaments and Agents” (priority 2007, published 2010):
Non-standard residues stand in square brackets, D forms with d. Residues, ends and D or L forms follow the SMILES beside them. *: point of attachment. Nle = CCCC[C@H](N)C(=O)O; Cbz = O=C(OCc1ccccc1)*

What was measured:
Format in all cases: cell-based
MCF-10A cells = assay: SRB proliferation of GSI1 on normal cell line MCF-10A
Method: (§1) Graphs illustrating the effects of GSI1, at different concentrations, on proliferation in four normal cell lines: (A) MCF-10A cells, (B) MCF-10A, (C) L226U19 cells and (D) L226TS4 cells.
(§2) The effect of GSI1 on proliferation in normal cell lines was investigated as, illustrated in FIG. 8. […] Therefore we repeated in all 3 normal lines (MCF-10A, L226U19 and L226TS4) at much higher concentrations (10 μM, 20 μM, 40 μM, 60 μM and 80 μM). 10 μM GSI1 was required to kill the MCF-10A cells and over 40 μM GSI1 was required to kill the two L226 cell lines. MCF-10A cells were cultured in DMEM (Invitrogen 11995-040), […] Insulin (Sigma, 11882), 20 ng/ml hEGF (Trevigen, 3443-050-01), 100 ng/ml Cholera Toxin (Sigma, C8052), 500 ng/ml Hydrocortisone (Sigma, H0888), 5% Horse Serum +100U/m1 penicillin, 0.1 mg/ml streptomycin, 2 mM L-glutamine at 37° C. in 5% CO2. L226U19 and TS4 cells were cultured in DME: F12 plus 10% FCS, 5 μg/ml insulin, 1 μg/ml Hydrocortisone, 10 ng/ml hEGF, 10 ng/ml Cholera toxin 100 U/ml penicillin, 0.1 mg/ml streptomycin, 2 mM L-glutamine at 37° C. in 5% CO2.

[1] = test system: L226U19 and L226TS4 cells; assay: SRB proliferation of GSI1 on normal L226 cell lines; settings: tested at 10-80 μM; the two L226 cell lines
Method: as §1, §2

[2] = test system: MDA-MB-231, T47D and MCF-7 cells; assay: Annexin V staining / full cell cycle analysis by FACS after GSI1
Method: (§3) We next did Annexin V staining which is a marker of apoptosis. Cells were treated with GSI1 for 0, 7, 24 and 48 hours. After trypsinizing, the cells were washed with PBS 5 times and then treated with RNAase (100 μg/ml) for 20 mins then propidium iodide was added at 50 μg/ml per 1×10^7 cells, and incubated overnight at 4° C. The samples were then filtered through a 70 μm mesh and run on a FACS with the following settings: Forward scatter 113, side scatter 356 and PE setting 380. Although there was an increase in staining indicating apoptosis, this was only approximately 10%. For example, in MDA-MB-231 cells there was a 5% increase in Annexin V staining after 7 hours of treatment and in T47D and MCF-7 cells there was an 8% increase in Annexin V staining. We have repeated these experiments with full cell cycle analysis at 7, 24 and 48 h post treatment and again detect apoptosis but […]. […] Nevertheless it is likely that cell proliferation is inhibited via another mechanism as opposed to the induction of cellular death.

MCF-7 cells = assay: Annexin V staining after GSI1
Method: as §3

MDA-MB-231 cells = assay: Annexin V staining after GSI1; settings: after 7 hours of treatment
Method: as §3

T47D cells = assay: Annexin V staining after GSI1
Method: as §3

[3] = test system: notch intracellular domain in MCF-7 cells; assay: Staining for notch intracellular domain expression (surrogate marker for GS activity); settings: 48 hours; Gefitinib 15 μM, U0126 10 μM, PD98059 10 μM
Excerpt: (A) GS activity as measured by a fluorescent assay in MCF7 breast cancer cell lines and MCF10A normal cell lines, with and without treatment with the ERK1/2 inhibitor U0126. (B) Sections of MCF7 breast cancer cell lines stained for notch intracellular domain expression (as a surrogate marker for GS activity). Shown are sections of cells untreated (NO), and cells treated with oestrogen (E2), faslodex (FAS), Gefitinib (Gef), GSI1, and the ERK1/2 inhibitors U0126 (U) and. PD98059 (PD). (C) Sections of MCF10A normal cell lines stained for notch intracellular domain expression. Shown are sections of cells untreated (NO), and cells treated with Gefitinib (Gef) and PD98059 (PD).
Cancer and normal cell lines were treated with oestrogen (E2), faslodex (FAS), Gefitinib (Gef 15 μM), GSI1, and the ERK1/2 inhibitors U0126 (U) (10 μM) and PD98059 (PD) (10 μM) for 48 hours and a fluorescent assay performed to measure GS activity. The figures show relative fluorescence therefore the amount of fluorescence in the treated cells relative to the untreated minus background (these figures are corrected for background).

[4] = test system: Gamma Secretase Activity in breast cancer cell lines; assay: Gamma-Secretase Activity Assay (R&D Systems kit) upon GSI1 treatment; settings: 750 nM, 2 uM, 5 uM; 24 and 48 hours
Method: 1.5×10^6 cells were plated out and allowed to adhere overnight. The next day, cells were treated with increasing concentrations of GSI1 (750 nM, 2 uM, 5 uM) for 24 and 48 hours. We used the R&D Systems Gamma Secretase Activity Kit (as previously reported- ref from R&D Spec sheet) to determine Gamma Secretase Activity in breast cancer cell lines. Cells were washed twice with ice-cold PBS and all following steps, according to manufacturer's protocol were performed at 4 degrees. Briefly, cells were harvested in the Cell Extraction buffer, and incubated on ice for at least 10 minutes, to allow for maximal Buffer activity. Lysates were centrifuged at 10,000×g for 1 minute. Supernatants were collected with a total protein yield between 0.5-1 mg/ml. Pierce BCA Protein Assay was used to determine protein concentration in each sample. 200 microg of was used and incubated with the gamma-secretase fluorogenic substrate for 2 hours at 37° C. Fluorescence was measured at 355/460 nm.

[5] = test system: Hes1 transcriptional activity (Notch target gene); assay: CSL (Hes-1) Luciferase reporter assay upon GSI1 treatment; settings: 750 nM, 2 microM, 5 microM; 24 h
Method: For the Luciferase based reporter assay, 5×10^4 cells were plated in 48 well plates and allowed to adhere over night. The following day, cells were transfected with 200 ng of the 23A plasmid (Hes-1 reporter). 24 h after transfection, transfection media was evacuated and replaced with treatment media (750 nM, 2 microM, 5 microM of the GSI1 and a vehicle treated control). Cells were incubated for 24 h at 37 C. At the 24 h time point the Dual Glow (Promega) Luciferase Kit was implemented according to manufacturer's protocol).

CCCC[C@@H](C=O)NC(=O)[C@H](CC(C)C)NC(=O)[C@H](CC(C)C)NC(=O)OCc1ccccc1 [GSI1, Z-Leu-Leu-Nle-CHO] (Cbz-Leu-Leu-[Nle]-aldehyde)
effect on proliferation (MCF-10A cells; GSI1 100 nM to 10 μM): no effect on proliferation
concentration required to kill the cells (MCF-10A cells; repeat at 10-80 μM): 10 µM
concentration required to kill the cells [1]: over 40 μM
apoptosis level in full cell cycle analysis ([2]; 7, 24 and 48 h post treatment, higher concentration of GSI): > 25%
cell cycle status ([2]; higher concentration of GSI): majority of cells were in G2/M Cell cycle arrest
increase in Annexin V staining indicating apoptosis ([2]; treated 0, 7, 24 and 48 hours): approximately 10%
increase in Annexin V staining (MCF-7 cells): 8%
increase in Annexin V staining (MDA-MB-231 cells): 5%
increase in Annexin V staining (T47D cells): 8%
notch intracellular domain expression localized to the nucleus compared to untreated cells [3]: appear to increase notch intracellular domain expression localized to the nucleus
reduction in gamma-secretase activity [4]: dose dependant and already significant at the dose of 750 nM
Hes1 reporter (Luciferase) activity [5]: dose dependant decrease of the reporter activity
